The source of these data is US9278920B2, “Pleuromutilin derivatives for use in the treatment of diseases mediated by microbes” (Nabriva Therapeutics AG, priority 2010, dated 2016).

Assay [1] deals with Streptococcus pneumoniae ATCC49619. In words: MIC by Agar Dilution Test or Microdilution Test (CLSI M7-A7). Format: cell-based. To be noted: in vitro, strain ATCC49619, read-out: MIC against Streptococcus pneumoniae ATCC49619. On the procedure:
(§1) The in vitro activity against aerobic bacteria was determined by Agar Dilution Test or Microdilution Test according to the Clinical and Laboratory Standards Institute (CLSI, former NCCLS) Document M7-A7 Vol. 26, No. 2: “Methods for Dilution Antimicrobial Susceptibility Tests for Bacteria that Grow Aerobically—Approved Standard; Seventh Edition (2006)”; and the test against anaerobic bacteria was performed according to the Clinical and Laboratory Standards Institute (CLSI, former NCCLS), Document, M11-A6, Vol. 24, No. 2: “Methods for Antimicrobial Susceptibility Testing of Anaerobic Bacteria—Approved Standard; Sixth Edition (2004)” and the in vivo activity was tested by the septicemia mouse model against Staphylococcus aureus.
A general note: Agar dilution tests growth on a series of plates holding different concentrations.

The test system of assay [2] is Staphylococcus aureus ATCC49951. The assay is described as above. The assay is classed as cell-based. To be noted: in vitro, strain ATCC49951, read-out: MIC against Staphylococcus aureus ATCC49951. The protocol:
as §1

Counter-ions that a name gives are not always drawn.

On to `C=C[C@]1(C)C[C@@H](OC(=O)CSC2CCC(N)CCC2O)[C@]2(C)C(C)CCC3(CCC(=O)C32)[C@@H](C)C1O` (mixture of isomers) [Example 12, 14-O-{[(1R, 2R, 5R)-5-Amino-2-hydroxy-cycloheptylsulfanyl]-acetyl}-mutilin hydrochloride and the (1S, 2S, 5S), (1R, 2R, 5S), (1S, 2S, 5R) diastereomers thereof], for which the MIC in assay [1] and in assay [2] was not above 2 mg/L in each case.
